Data set [1] deals with T1, Glucagon-like peptide 1 receptor (Homo sapiens, UniProt P43220). As to the kind of experiment: Activation of human GLP1 receptor expressed in HEK293 cells assessed as increase in cAMP accumulation. Format: functional, cell-based. Conditions: for pEC50: read-out: EC50. A general note: Cyclic AMP is a second messenger, typically raised through Gs and lowered through Gi signalling.

For data set [2], the target named is T1, Glucagon-like peptide 1 receptor. As to the kind of experiment: Activation of human GLP1 receptor expressed in HEK293 cells assessed as increase in cAMP accumulation relative to GLP1. The data set is classed as functional, cell-based.
For the next data set, the system named is DPP4. In words: Chemical stability of the compound assessed as half life up to 24 hrs by HPLC analysis in presence of human recombinant DPP4. Format: physicochemical.
The next data set concerns NEP 24.11. In words: Chemical stability of the compound assessed as half life up to 24 hrs by HPLC analysis in presence of human recombinant NEP 24.11. The data set is classed as physicochemical.

Molecules are shown by their SMILES. pEC50: −log10 of the molar value. Bridge positions count the residues as written; N and C are the ends. Peptide text beside a SMILES is read from it.

As a reminder, the pEC50 is −log10 of the EC50, conventionally taken in molar units. As a reminder, the half-life is how long it takes for the measured level to halve.

T1 sequence (P43220 whole entry): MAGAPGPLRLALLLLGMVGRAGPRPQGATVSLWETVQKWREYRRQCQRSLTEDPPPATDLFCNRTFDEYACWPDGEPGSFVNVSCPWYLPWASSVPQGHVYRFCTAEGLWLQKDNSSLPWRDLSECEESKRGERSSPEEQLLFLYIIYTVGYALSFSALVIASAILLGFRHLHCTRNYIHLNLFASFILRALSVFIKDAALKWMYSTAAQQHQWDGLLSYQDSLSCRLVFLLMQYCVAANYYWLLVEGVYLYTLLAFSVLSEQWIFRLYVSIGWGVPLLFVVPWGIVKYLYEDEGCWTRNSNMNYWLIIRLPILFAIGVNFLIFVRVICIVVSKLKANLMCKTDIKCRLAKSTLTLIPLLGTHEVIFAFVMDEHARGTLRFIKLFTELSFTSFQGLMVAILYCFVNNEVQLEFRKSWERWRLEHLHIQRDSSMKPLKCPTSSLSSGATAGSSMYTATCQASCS

On to `CC[C@H](C)[C@H](NC(=O)[C@H](Cc1ccccc1)NC(=O)[C@H](CCC(=O)O)NC(=O)[C@H](CCCCN)NC(=O)[C@H](C)NC(=O)[C@H](C)NC(=O)[C@H](CCC(N)=O)NC(=O)CNC(=O)[C@H](CCC(=O)O)NC(=O)[C@H](CC(C)C)NC(=O)[C@H](Cc1ccc(O)cc1)NC(=O)[C@H](CO)NC(=O)[C@H](CO)NC(=O)[C@@H](NC(=O)[C@H](CC(=O)O)NC(=O)[C@H](CO)NC(=O)[C@@H](NC(=O)[C@H](Cc1ccccc1)NC(=O)[C@@H](NC(=O)CNC(=O)[C@H](CCC(=O)O)NC(=O)[C@H](C)NC(=O)[C@@H](N)Cc1cnc[nH]1)[C@@H](C)O)[C@@H](C)O)C(C)C)C(=O)N[C@H]1CCC(=O)NCCCC[C@@H](C(=O)NCC(=O)N[C@@H](CCCNC(=N)N)C(N)=O)NC(=O)[C@H](C(C)C)NC(=O)[C@H](CC(C)C)NC(=O)[C@H](Cc2c[nH]c3ccccc23)NC1=O`, for which the pEC50 in data set [1] was 8.28. Further, the EC50 in data set [1] (read-out: pEC50 (converted)) was 2.51 nM. Moreover, in data set [2], the Activity was determined as 90%. For the same compound, the values for the half-life in the data set on DPP4 and in the data set with NEP 24.11 were 3.3 h and 6.9 h, respectively.

As for `CC[C@H](C)[C@H](NC(=O)[C@H](Cc1ccccc1)NC(=O)[C@H](CCC(=O)O)NC(=O)[C@H](CCCCN)NC(=O)[C@H](C)NC(=O)[C@H](C)NC(=O)[C@H](CCC(N)=O)NC(=O)CNC(=O)[C@@H]1CCCCNC(=O)CC[C@H](NC(=O)[C@H](CC(=O)O)NC(=O)[C@H](CO)NC(=O)[C@@H](NC(=O)[C@H](Cc2ccccc2)NC(=O)[C@@H](NC(=O)CNC(=O)[C@H](CCC(=O)O)NC(=O)[C@H](C)NC(=O)[C@@H](N)Cc2cnc[nH]2)[C@@H](C)O)[C@@H](C)O)C(=O)N[C@@H](CO)C(=O)N[C@@H](CO)C(=O)N[C@@H](Cc2ccc(O)cc2)C(=O)N1)C(=O)N[C@@H](C)C(=O)N[C@@H](Cc1c[nH]c2ccccc12)C(=O)N[C@@H](CC(C)C)C(=O)N[C@H](C(=O)N[C@@H](CCCCN)C(=O)NCC(=O)N[C@@H](CCCNC(=N)N)C(N)=O)C(C)C` (H-HAEGTFTSDESSYKGQAAKEFIAWLVKGR-NH2; lactam 10-14), the pEC50 in data set [1] was 8.42. The Activity in data set [2] was found to be 120%. The results for the half-life in the data set on DPP4 and with NEP 24.11 were 1.8 h and 3.2 h, respectively.

As for `CC[C@H](C)[C@H](NC(=O)[C@H](Cc1ccccc1)NC(=O)[C@H](CCC(=O)O)NC(=O)[C@H](CCCCN)NC(=O)[C@H](C)NC(=O)[C@H](C)NC(=O)[C@H](CCC(N)=O)NC(=O)CNC(=O)[C@H](CCC(=O)O)NC(=O)[C@@H]1CCC(=O)NCCCC[C@H](NC(=O)[C@H](CC(=O)O)NC(=O)[C@H](CO)NC(=O)[C@@H](NC(=O)[C@H](Cc2ccccc2)NC(=O)[C@@H](NC(=O)CNC(=O)[C@H](CCC(=O)O)NC(=O)[C@H](C)NC(=O)[C@@H](N)Cc2cnc[nH]2)[C@@H](C)O)[C@@H](C)O)C(=O)N[C@@H](CO)C(=O)N[C@@H](CO)C(=O)N[C@@H](Cc2ccc(O)cc2)C(=O)N1)C(=O)N[C@H]1CCCCNC(=O)CC[C@@H](C(=O)NCC(=O)N[C@@H](CCCNC(=N)N)C(N)=O)NC(=O)[C@H](C(C)C)NC(=O)[C@H](CC(C)C)NC(=O)[C@H](Cc2c[nH]c3ccccc23)NC1=O` (H-HAEGTFTSDKSSYEEGQAAKEFIKWLVEGR-NH2; lactam 10-14, 24-28), the pEC50 in data set [1] was 8.15. Besides, the Activity in data set [2] worked out at 70%. Moreover, the half-life with DPP4 was 2.9 h; in the data set on NEP 24.11 it was 17 h.

In the case of `CC[C@H](C)[C@H](NC(=O)[C@H](Cc1ccccc1)NC(=O)[C@H](CCC(=O)O)NC(=O)[C@H](CCCCN)NC(=O)[C@H](C)NC(=O)[C@H](C)NC(=O)[C@@H]1CCCCNC(=O)CC[C@H](NC(=O)[C@H](CO)NC(=O)[C@@H](NC(=O)[C@H](CC(=O)O)NC(=O)[C@H](CO)NC(=O)[C@@H](NC(=O)[C@H](Cc2ccccc2)NC(=O)[C@@H](NC(=O)CNC(=O)[C@H](CCC(=O)O)NC(=O)[C@H](C)NC(=O)[C@@H](N)Cc2cnc[nH]2)[C@@H](C)O)[C@@H](C)O)C(C)C)C(=O)N[C@@H](Cc2ccc(O)cc2)C(=O)N[C@@H](CC(C)C)C(=O)NCC(=O)N1)C(=O)N[C@@H](C)C(=O)N[C@@H](Cc1c[nH]c2ccccc12)C(=O)N[C@@H](CC(C)C)C(=O)N[C@H](C(=O)N[C@@H](CCCCN)C(=O)NCC(=O)N[C@@H](CCCNC(=N)N)C(N)=O)C(C)C` (H-HAEGTFTSDVSEYLGKAAKEFIAWLVKGR-NH2; lactam 12-16), the pEC50 in data set [1] was 9.22. For the same compound, the Activity in data set [2] is 770%. Further, the half-life in the data set with DPP4 was 2.1 h; in the data set on NEP 24.11, 10 h.

Consider `CC[C@H](C)[C@H](NC(=O)[C@H](Cc1ccccc1)NC(=O)[C@H](CCC(=O)O)NC(=O)[C@H](CCCCN)NC(=O)[C@H](C)NC(=O)[C@H](C)NC(=O)[C@H](CCC(N)=O)NC(=O)[C@@H]1CCC(=O)NCCCC[C@H](NC(=O)[C@H](CO)NC(=O)[C@@H](NC(=O)[C@H](CC(=O)O)NC(=O)[C@H](CO)NC(=O)[C@@H](NC(=O)[C@H](Cc2ccccc2)NC(=O)[C@@H](NC(=O)CNC(=O)[C@H](CCC(=O)O)NC(=O)[C@H](C)NC(=O)[C@@H](N)Cc2cnc[nH]2)[C@@H](C)O)[C@@H](C)O)C(C)C)C(=O)N[C@@H](Cc2ccc(O)cc2)C(=O)N[C@@H](CC(C)C)C(=O)N[C@@H](CCC(=O)O)C(=O)N1)C(=O)N[C@H]1CCCCNC(=O)CC[C@@H](C(=O)NCC(=O)N[C@@H](CCCNC(=N)N)C(N)=O)NC(=O)[C@H](C(C)C)NC(=O)[C@H](CC(C)C)NC(=O)[C@H](Cc2c[nH]c3ccccc23)NC1=O` (H-HAEGTFTSDVSKYLEEQAAKEFIKWLVEGR-NH2; lactam 12-16, 24-28), for which the pEC50 in data set [1] is 9.00. Also, the Activity in data set [2] came to 460%. Also, the half-life with DPP4 was 4.1 h; in the data set with NEP 24.11, 18 h.

On to `CC[C@H](C)[C@H](NC(=O)[C@H](Cc1ccccc1)NC(=O)[C@H](CCC(=O)O)NC(=O)[C@@H]1CCCCNC(=O)CC[C@H](NC(=O)[C@H](CCC(=O)O)NC(=O)[C@H](CC(C)C)NC(=O)[C@H](Cc2ccc(O)cc2)NC(=O)[C@H](CO)NC(=O)[C@H](CO)NC(=O)[C@@H](NC(=O)[C@H](CC(=O)O)NC(=O)[C@H](CO)NC(=O)[C@@H](NC(=O)[C@H](Cc2ccccc2)NC(=O)[C@@H](NC(=O)CNC(=O)[C@H](CCC(=O)O)NC(=O)[C@H](C)NC(=O)[C@@H](N)Cc2cnc[nH]2)[C@@H](C)O)[C@@H](C)O)C(C)C)C(=O)N[C@@H](CCC(N)=O)C(=O)N[C@@H](C)C(=O)N[C@@H](C)C(=O)N1)C(=O)N[C@H]1CCC(=O)NCCCC[C@@H](C(=O)NCC(=O)N[C@@H](CCCNC(=N)N)C(N)=O)NC(=O)[C@H](C(C)C)NC(=O)[C@H](CC(C)C)NC(=O)[C@H](Cc2c[nH]c3ccccc23)NC1=O` (H-HAEGTFTSDVSSYLEEQAAKEFIEWLVKGR-NH2; lactam 16-20, 24-28), for which the pEC50 in data set [1] was 8.80. For the same compound, in data set [2], the Activity was 290%. Also, the half-life came to 6 h in the data set with DPP4 and 3.5 h in the data set with NEP 24.11.

In the case of `CC[C@H](C)[C@H](NC(=O)[C@H](Cc1ccccc1)NC(=O)[C@H](CCC(=O)O)NC(=O)[C@@H]1CCC(=O)NCCCC[C@H](NC(=O)[C@H](CCC(=O)O)NC(=O)[C@H](CC(C)C)NC(=O)[C@H](Cc2ccc(O)cc2)NC(=O)[C@H](CO)NC(=O)[C@H](CO)NC(=O)[C@@H](NC(=O)[C@H](CC(=O)O)NC(=O)[C@H](CO)NC(=O)[C@@H](NC(=O)[C@H](Cc2ccccc2)NC(=O)[C@@H](NC(=O)CNC(=O)[C@H](CCC(=O)O)NC(=O)[C@H](C)NC(=O)[C@@H](N)Cc2cnc[nH]2)[C@@H](C)O)[C@@H](C)O)C(C)C)C(=O)N[C@@H](CCC(N)=O)C(=O)N[C@@H](C)C(=O)N[C@@H](C)C(=O)N1)C(=O)N[C@H]1CCCCNC(=O)CC[C@@H](C(=O)NCC(=O)N[C@@H](CCCNC(=N)N)C(N)=O)NC(=O)[C@H](C(C)C)NC(=O)[C@H](CC(C)C)NC(=O)[C@H](Cc2c[nH]c3ccccc23)NC1=O` (H-HAEGTFTSDVSSYLEKQAAEEFIKWLVEGR-NH2; lactam 16-20, 24-28), the pEC50 in data set [1] was 8.66. Further, in data set [2], the Activity was 210%. Moreover, the half-life in the data set on DPP4 stood at 7.3 h; in the data set with NEP 24.11, 1.2 h.

(Values after ChEMBL document CHEMBL1240496, “Development of potent glucagon-like peptide-1 agonists with high enzyme stability via introduction of multiple lactam bridges” (J Med Chem, 2010).)
